Measurements published in patent US20160045505A1, “COMPOUNDS AND COMPOSITIONS FOR THE TREATMENT OF PARASITIC DISEASES” (NOVARTIS AG, priority 2013, published 2016).
Where two headings read alike, the source gives them in different places.

What was measured:
[1] = test system: Leishmania donovani axenic amastigote parasites; assay: Leishmania donovani axenic amastigote proliferation assay (Cell TiterGlo luminescence, 2 day incubation); assay type: cell-based; conditions: Leishmania donovani
[2] = test system: L. donovani HU3 strain in mouse peritoneal macrophages; assay: Assay for proliferation of Leishmania parasites in infected mouse peritoneal macrophages (SybrGreen staining, high-content imaging, 5 days); assay type: cell-based, Leishmania donovani; conditions: Leishmania donovani, Peritoneal macrophage
[3] = test system: Trypanosoma cruzi amastigotes (Tulahuen strain expressing Lac-Z) cultured in 3T3 fibroblast cells; assay: microbe, parasite or virus in culture; assay type: cell-based; conditions: Trypanosoma cruzi, TULAHUEN, Fibroblast
[4] = axenic amastigotes, inhibition of proliferation, read-out: L. donovani amastigotes EC50
[5] = L. donovani in mouse peritoneal macrophages, inhibition of proliferation, read-out: L. donovani Macrophage EC50
[6] = T. cruzi amastigotes in 3T3 fibroblast cells, inhibition of proliferation, read-out: T cruzi EC50
[7] = L. donovani axenic amastigotes, read-out: L. donovani amastigotes EC50
[8] = L. donovani in mouse peritoneal macrophages, read-out: L. donovani Macrophage EC50
[9] = T. cruzi amastigotes in 3T3 fibroblast cells, read-out: T cruzi EC50

## CC(C)OC(=O)Nc1ccc(F)c(-c2cn3cc(NC(=O)OC(C)C)cnc3n2)c1 [Compound 302]
[1]; [4]
  EC50: 0.305 µM
[2]; [5]
  EC50: 0.587 µM
[3]; [6]
  EC50: 0.134 µM

## COCCOC(=O)Nc1ccc(F)c(-c2cn3cc(NC(=O)OC(C)C)cnc3n2)c1 [Compound 303]
[1]; [4]
  EC50: > 20.3 µM
[2]; [5]
  EC50: > 50 µM
[3]; [6]
  EC50: 17.7 µM

## O=C(Nc1ccc(F)c(-c2cn3cc(-c4ccccc4)cnc3n2)c1)N1CCC1 [Compound 321]
[1]; [4]
  EC50: 0.008 µM
[2]; [5]
  EC50: 0.015 µM
[3]; [6]
  EC50: 0.005 µM

## CN(CC(F)(F)F)C(=O)Nc1ccc(F)c(-c2cn3cc(C4=CCOCC4)cnc3n2)c1 [Compound 326]
[1]; [4]
  EC50: 0.158 µM
[2]; [5]
  EC50: 0.496 µM
[3]; [6]
  EC50: 0.123 µM

## Cc1nc(C)c(C(=O)Nc2ccc(F)c(-c3cn4cc(-c5ccccc5)cnc4n3)c2)o1 [Compound 333]
[1]; [4]
  EC50: 0.088 µM
[2]; [5]
  EC50: 0.087 µM
[3]; [6]
  EC50: 0.016 µM

## Cc1nc(C)c(C(=O)Nc2ccc(F)c(-c3cn4cc(C5=CCOCC5)cnc4n3)c2)o1 [Compound 334]
[1]; [4]
  EC50: 0.052 µM
[2]; [5]
  EC50: 0.085 µM
[3]; [6]
  EC50: 0.064 µM

## CC(C)(C)OC(=O)N1CC=C(c2cnc3nc(-c4cc(NC(=O)N5CCCC5)ccc4Cl)cn3c2)CC1 [Compound 343, tert-butyl 4-(2-(2-chloro-5-(pyrrolidine-1-carboxamido)phenyl)imidazo[1,2-a]pyrimidin-6-yl)-5,6-dihydropyridine-1(2H)-carboxylate]
[1]; [4]
  EC50: 0.106 µM
[2]; [5]
  EC50: 0.308 µM
[3]; [6]
  EC50: 0.074 µM

## C[Si](C)(C)CCOCn1cnc(-c2cnc3nc(-c4cc(NC(=O)N5CCCC5)ccc4Cl)cn3c2)c1 [Compound 344]
[1]; [4]
  EC50: 0.073 µM
[2]; [5]
  EC50: 0.158 µM
[3]; [6]
  EC50: 0.051 µM

## C=C(c1ccccc1)c1cnc2nc(-c3cc(NC(=O)c4oc(C)nc4C)ccc3F)cn2c1 [Compound 346]
[1]; [4]
  EC50: 0.355 µM
[2]; [5]
  EC50: 0.49 µM
[3]; [6]
  EC50: 0.159 µM

## Cc1nc(C)c(C(=O)Nc2ccc(F)c(-c3cn4cc(C5=CCN(C(=O)OC(C)(C)C)CC5)cnc4n3)c2)o1 [Compound 347]
[1]; [4]
  EC50: 0.154 µM
[2]; [5]
  EC50: 0.151 µM
[3]; [6]
  EC50: 0.099 µM

## CNc1ccc(-c2cnc3nc(-c4cc(NC(=O)N5CCCC5)ccc4F)cn3c2)cc1 [Compound 351]
[1]; [4]
  EC50: 0.071 µM
[2]; [5]
  EC50: 0.13 µM
[3]; [6]
  EC50: 0.095 µM

## O=C(Nc1ccc(F)c(-c2cn3cc(-c4ccc(CCN5CCOCC5)cc4)cnc3n2)c1)N1CCCC1 [Compound 352]
[1]; [4]
  EC50: 0.215 µM
[2]; [5]
  EC50: 0.061 µM
[3]; [6]
  EC50: 0.018 µM

## O=C(Nc1ccc(F)c(-c2cn3cc(C4=CCOCC4)cnc3n2)c1)N1CCCC1 [Compound 353]
[1]; [4]
  EC50: 0.051 µM
[2]; [5]
  EC50: 0.112 µM
[3]; [6]
  EC50: 0.053 µM

## O=C(Nc1ccc(F)c(-c2cn3cc(-c4ccccc4Cl)cnc3n2)c1)N1CCCC1 [Compound 357]
[1]; [4]
  EC50: 0.088 µM
[2]; [5]
  EC50: 0.194 µM
[3]; [6]
  EC50: 0.015 µM

## O=C(Nc1ccc(F)c(-c2cn3cc(-c4ccccc4)cnc3n2)c1)N1CCCC1 [Compound 358]
[1]; [4]
  EC50: 0.03 µM
[2]; [5]
  EC50: 0.148 µM
[3]; [6]
  EC50: 0.012 µM

## Cc1nc(C)c(C(=O)Nc2ccc(F)c(-c3cn4cc(C5=CCN(C)CC5)cnc4n3)c2)o1 [Compound 361]
[1]; [4]
  EC50: 7.93 µM
[2]; [5]
  EC50: 0.993 µM
[3]; [6]
  EC50: 1.04 µM

## CCn1nccc1-c1cnc2nc(-c3cc(NC(=O)c4oc(C)nc4C)ccc3F)cn2c1 [Compound 387]
[1]; [7]
  EC50: 0.086 µM
[2]; [8]
  EC50: 0.286 µM
[3]; [9]
  EC50: 0.149 µM

## Cc1nc(C)c(C(=O)Nc2ccc(F)c(-c3cn4cc(-c5ccccn5)cnc4n3)c2)o1 [Compound 394]
[1]; [7]
  EC50: 0.08 µM
[2]; [8]
  EC50: 0.107 µM
[3]; [9]
  EC50: > 20 µM

## O=C(Nc1ccc(F)c(-c2cn3cc(-c4ccccn4)cnc3n2)c1)N1CC(F)C1 [Compound 400]
[1]; [7]
  EC50: 0.045 µM
[2]; [8]
  EC50: 0.203 µM
[3]; [9]
  EC50: 0.199 µM

## O=C(Nc1ccc(F)c(-c2cn3cc(-c4ccccn4)cnc3n2)c1)N1CCC1 [Compound 404]
[1]; [7]
  EC50: 0.011 µM
[2]; [8]
  EC50: 0.034 µM
[3]; [9]
  EC50: 0.017 µM

## O=C(Nc1ccc(F)c(-c2cn3cc(C4CCOCC4)cnc3n2)c1)N1CCCC1 [Compound 419]
[1]; [7]
  EC50: 0.077 µM
[2]; [8]
  EC50: 0.182 µM
[3]; [9]
  EC50: 0.114 µM

## Cc1nc(C)c(C(=O)Nc2ccc(F)c(-c3cn4cc(C5CCOCC5)cnc4n3)c2)o1 [Compound 421]
[1]; [7]
  EC50: 0.127 µM
[2]; [8]
  EC50: 0.337 µM
[3]; [9]
  EC50: 0.17 µM

## Cc1nc(C)c(C(=O)Nc2ccc(F)c(-c3cn4cc(-c5nc(C)c(C)s5)cnc4n3)c2)o1 [Compound 457, N-(3-(6-(4,5-dimethylthiazol-2-yl)imidazo[1,2-a]pyrimidin-2-yl)-4-fluorophenyl)-2,4-dimethyloxazole-5-carboxamide]
[1]; [7]
  EC50: 0.162 µM
[2]; [8]
  EC50: 13.2 µM
[3]; [9]
  EC50: 0.32 µM

## COc1cccnc1-c1cnc2nc(-c3cc(NC(=O)c4oc(C)nc4C)ccc3F)cn2c1 [Compound 459]
[1]; [7]
  EC50: 0.129 µM
[2]; [8]
  EC50: 0.347 µM
[3]; [9]
  EC50: 0.119 µM

## Cc1nc(C)c(C(=O)Nc2ccc(F)c(-c3cn4cc(NC(C)C)cnc4n3)c2)o1 [Compound 481]
[1]; [7]
  EC50: 0.209 µM
[2]; [8]
  EC50: 0.43 µM
[3]; [9]
  EC50: 0.151 µM

## CC(C)OC(=O)Nc1cnc2nc(-c3cc(Nc4cccnc4)ccc3F)cn2c1 [Compound 486]
[1]; [7]
  EC50: 16.1 µM
[2]; [8]
  EC50: > 50 µM
[3]; [9]
  EC50: 1.45 µM

## Cc1nc(C)c(C(=O)Nc2ccc(F)c(-c3cn4cc(N5CCOCC5)cnc4n3)c2)o1 [Compound 490]
[1]; [7]
  EC50: 0.134 µM
[2]; [8]
  EC50: 0.383 µM
[3]; [9]
  EC50: 0.157 µM

## COCCNc1cnc2nc(-c3cc(NC(=O)N4CCCC4)ccc3Cl)cn2c1 [Compound 496]
[1]; [7]
  EC50: 2.06 µM
[2]; [8]
  EC50: 8.85 µM
[3]; [9]
  EC50: 2.12 µM

## Cc1nc(C)c(C(=O)Nc2ccc(F)c(-c3cn4cc(NC5=NCCN5C)cnc4n3)c2)o1 [Compound 506]
[1]; [7]
  EC50: > 25 µM
[2]; [8]
  EC50: > 25.9 µM
[3]; [9]
  EC50: > 18.2 µM

## Cc1nc(C)c(C(=O)Nc2ccc(Cl)c(-c3cn4cc(N5CCOC5=O)cnc4n3)c2)o1 [Compound 520, N-(4-chloro-3-(6-(2-oxooxazolidin-3-yl)imidazo[1,2-a]pyrimidin-2-yl)phenyl)-2,4-dimethyloxazole-5-carboxamide]
[1]; [7]
  EC50: > 25 µM
[2]; [8]
  EC50: > 50 µM
[3]; [9]
  EC50: > 20 µM

## NNC(=O)Nc1cnc2nc(-c3cc(NC(=O)N4CCCC4)ccc3F)cn2c1 [Compound 521, N-(4-fluoro-3-(6-(hydrazinecarboxamido)imidazo[1,2-a]pyrimidin-2-yl)phenyl)pyrrolidine-1-carboxamide]
[1]; [7]
  EC50: 4.68 µM
[2]; [8]
  EC50: 38.2 µM
[3]; [9]
  EC50: 9.23 µM

## CC(C)NNC(=O)Nc1cnc2nc(-c3cc(NC(=O)N4CCCC4)ccc3F)cn2c1 [Compound 522]
[1]; [7]
  EC50: 19.3 µM
[2]; [8]
  EC50: > 50 µM
[3]; [9]
  EC50: > 20 µM

## CC(=O)Nc1cnc2nc(-c3cc(NC(=O)c4oc(C)nc4C)ccc3F)cn2c1 [Compound 525, N-(3-(6-acetamidoimidazo[1,2-a]pyrimidin-2-yl)-4-fluorophenyl)-2,4-dimethyloxazole-5-carboxamide]
[1]; read-out: L. donovani amastigotes EC50 (μM)
  EC50: 5.35 µM
[2]; read-out: L. donovani Macrophage EC50 (μM)
  EC50: 21.1 µM
[3]; read-out: T cruzi EC50 (μM)
  EC50: > 20 µM

## O=C(Nc1ccc(F)c(-c2cn3cc(-n4cn[nH]c4=O)cnc3n2)c1)N1CCCC1 [Compound 534, N-(4-fluoro-3-(6-(5-oxo-1H-1,2,4-triazol-4(5H)-yl)imidazo[1,2-a]pyrimidin-2-yl)phenyl)pyrrolidine-1-carboxamide]
[1]; [7]
  EC50: > 23.7 µM
[2]; [8]
  EC50: > 50 µM
[3]; [9]
  EC50: > 20 µM

## COc1cnc2nc(-c3cc(NC(=O)N4CCCC4)ccc3F)cn2c1 [Compound 536, N-(4-fluoro-3-(6-methoxyimidazo[1,2-a]pyrimidin-2-yl)phenyl)pyrrolidine-1-carboxamide]
[1]; [7]
  EC50: 0.348 µM
[2]; [8]
  EC50: 2 µM
[3]; [9]
  EC50: 0.153 µM
